What was measured:
[1] = test system: human cellular glutathione peroxidase (GPx-1) codon 49; assay: Selenocysteine incorporation into GPx-1 U49 by intact mass spectrometry; design: species or system E. coli RTΔA.2; conditions: GPx-1 U49, pGPx-U49-AU and pRSF-eSelAK
Method: RTΔA.2 transformants containing pGPx-U49-AU and pRSF-eSelAK were cultured as described previously for azurin. Cells were harvested by centrifugation and resuspended in 50 mL of buffer (50 mM Potassium Phosphate, 150 mM NaCl, 10% glycerol, 1 mM DTT at pH 8.0) and lysozyme at 1 mg·mL^−1. Cells were lysed by sonication and clarified prior to GPx-1 recovery by IMAC. Eluate was concentrated and dialyzed against 100 mM phosphate buffer pH 8.0, 0.1% Tween 20 and 1 mM DTT followed by isolation of GPx-1 by anion exchange chromatography (Q HP column). GPx-1 was produced with a yield of 500 μg·L^−1 and close to 100% selenocysteine incorporation efficiency.
Intact protein samples were analyzed using methods described previously (Ellefson et al., 2014). Azurin, DHFR and GPx-1 samples were buffer exchanged into LC-MS grade water using 10 kDa molecular weight cutoff filters. Once the buffer exchange was complete the samples were diluted to 20 μM in a methanol/water/formic acid (50/49/1) solution. […] UVPD mass spectra were also deconvoluted using Xtract and then analyzed using ProsightPC 3.0. […] Incorporation efficiencies were calculated by dividing the area of the modified protein peak by the summed areas of the unmodified protein peak and the modified protein peak. […]

[2] = test system: NMC-A β-lactamase reporter (C69X); assay: NMC-A β-lactamase reporter assay (ampicillin resistance by amber suppression with selenocysteine); assay type: cell-based, E. coli DHΔabc; conditions: NMC-A C69X reporter, DHΔabc
Description: A method of genetic selection capable of discriminating different levels of selenocysteine incorporation was developed. To specifically ‘addict’ a reporter protein to selenocysteine rather than serine, the NMC-A β-lactamase from Enterobacter cloacae was used. […] Then cysteine 69 was replaced with an amber stop codon (X69; FIG. 1a) for library selection, hypothesizing that the incorporation of selenocysteine and the formation of a selenyl-sulfhydryl bond would restore activity. (Swardn et al., 1998)
To eliminate any crosstalk between the tRNA^Sec library and the endogenous selenocysteine incorporation machinery, the selA, selB and selC genes (encoding SelA, SelB and tRNA^Sec respectively) were deleted from E. coli DH10B (designated DHΔabc). Cells containing the reporter plasmid pNMC-A C69X and the accessory plasmid pRSF-eSelA (expressing SelA) were transformed with plasmid pMB1-ZU containing the tRNA^Sec antideterminant library. Transformants were plated on media containing a gradient of ampicillin concentrations for selection of mutants capable of selenocysteine-specific suppression. The single colonies that arose covered a range of ampicillin concentrations. […] Of these tRNA^Sec variants, only G7-C66:U49-G65:C50-U64 was detected at the two highest ampicillin concentration (200 and 250 μg·ml^−1).
The tRNA^Sec antideterminant library was generated by enzymatic inverse PCR using oligonucleotide primers (Table 2) to randomize the six positions identified as the main antideterminant for EF-Tu binding. Following self ligation for 16 hours, DNA was ethanol precipitated with GlycoBlue (Ambion) and transformed by electroporation into E. coli DHΔabc containing the plasmids pNMC-A C69X and pRSF-eSelA. Transformants were diluted in 200 ml LB medium containing 12.5 μg·mL^−1 Zeocin, 6.25 μg·mL^−1 tetracycline and 25 μg·mL^−1 kanamycin and incubated overnight. Following overnight growth, cells were diluted 1/50 in LB medium containing 6.25 μg·mL^−1 Zeocin, 3.75 μg·mL^−1 tetracycline, 12.5 μg·mL^−1 kanamycin, 1 μM Na2SeO3 and 20 μg·mL^−1 L-cysteine and incubated for one hour. A series of 250 μl aliquots of cells were plated on LB agar containing 6.25 μg·mL^−1 Zeocin, 3.75 μg·mL^−1 tetracycline, 12.5 […], 1 μM Na2SeO3 and 20 μg·mL^−1 L-cysteine and 50-300 μg·mL^−1 ampicillin in 50 μg·mL^−1 increments. After 20 hours at 37° C. individual colonies were observed on plates containing 50-200 μg·mL^−1 ampicillin. Plasmid DNA was isolated from a selection of colonies from all plates and tRNA^Sec mutations determined by Sanger sequencing.
NotI/NcoI fragments containing tRNA^SecUx were subcloned into pRSF-eSelA to generate pRSF-UX-eSelA. pRSF-U-eSelA variants described in Table 1 were transformed into E. coli DHΔabc containing the reporter plasmid pNMC-A C69TAG. DHΔabc cells containing pNMC-A and pRSFDuet-1 were used as a positive control. DHΔabc cells harboring pNMC-A C69S and pRSF-UX-eSelA, and pNMC-A C69TAG and pRSF-UX-ΔSelA were used as controls for selenocysteine dependent β-lactamase activity. Transformants were cultured overnight in LB medium containing 6.25 μg·mL^−1 tetracycline, 25 μg·mL^−1 kanamycin, 1 μM Na2SeO3 and 20 […]. Following overnight growth, cells were diluted 1/10 in LB medium containing antibiotics, selenite and L-cysteine and incubated for three hours. […]

[3] = test system: E. coli formate dehydrogenase H (FdhH); assay: Benzyl viologen assay; assay type: cell-based, E. coli DHΔabcF; conditions: FdhH U140TAG or U140S reporter, co-expressed with SelA, anaerobic
Method: The tRNA^Sec variant containing the G7-C66:U49-G65:C50-U64 (SEQ ID NO: 18) antideterminant sequence was designated tRNA^SecUx and was compared with the previously designed chimera (tRNA^UTu) and with a tRNA^Sec derivative designed to have an antideterminant region that should tightly bind EF-Tu (tRNA^UG; FIG. 2a). […] The hybrid tRNA^UTu incorporated selenocysteine and could grow on 75 μg·ml^−1. […] To further confirm tRNA^SecUx incorporated selenocysteine in response to amber stop codons, a standard colorimetric assay was employed based on the activity of the endogenous E. coli selenoprotein formate dehydrogenase H (FdhH) (FIG. 2b).
E. coli DH10B cells containing pRSFDuet-1 and pcat-pheS were used as a positive control. DHΔabcF cells harboring p15A-fdhF U140S and pRSF-UX-eSelA, and p15A-fdhF U140X and pRSF-UX-ΔSelA were used as controls for selenocysteine dependent formate dehydrogenase activity. Transformants were grown overnight at 37° C. in LB medium supplemented with 12.5 μg·mL^−1 tetracycline and 50 μg·mL^−1 kanamycin. Overnight cultures were diluted 1/20 in a final volume of 2 ml and incubated for three hours. Cultures were normalized to OD600=0.5 and 5 μl aliquots were dotted on LB agar plates containing 3.75 μg·mL^−1 tetracycline, 12.5 μg·mL^−1 kanamycin, 5 mM sodium formate, 10 μM Na2MoO4, 1 μM Na2SeO3 and 20 μg·mL^−1 L-cysteine. Plates were incubated at 37° C. for 3 h under aerobic conditions and then transferred to anaerobic conditions at 37° C. for 60 h. Upon removal from the anaerobic chamber, plates were immediately overlaid with agar containing 1 mg·mL^−1 benzyl viologen, 250 mM sodium formate and 25 mM KH2PO4 at pH 7.0. Plates were photographed within 1 h of overlaying.

Molecule	production of active β-lactamase [2]	other results
GPx-1: Recombinant human cellular glutathione peroxidase with selenocysteine at codon 49		selenocysteine incorporation efficiency in GPx-1 [1]: ~100%
tRNA^SecCUA: Parental E. coli tRNA^Sec containing a CUA anticodon [reference compound]	failed to produce active β-lactamase	
tRNA^UG: tRNA^Sec derivative with strong EF-Tu binding region from the major E. coli tRNA^Gly (nucleic acid, expressed or natural sequence) GGAAGATGGTCGTCTCCGGTGAGGCGGCTGGACTCTAAATCCAGTTGGGGCCGCCAGCGGTCCCGGCGAGGTTCGACTCCTCGTATCTTCCGCCA	failed to produce active β-lactamase	
FdhH U140S: E. coli formate dehydrogenase H with serine in place of selenocysteine 140 (protein, UniProt P07658 1-715, looked up, variant U140S) Formate dehydrogenase H: MKKVVTVCPYCASGCKINLVVDNGKIVRAEAAQGKTNQGTLCLKGYYGWDFINDTQILTPRLKTPMIRRQRGGKLEPVSWDEALNYVAERLSAIKEKYGPDAIQTTGSSRGTGNETNYVMQKFARAVIGTNNVDCCARVSHGPSVAGLHQSVGNGAMSNAINEIDNTDLVFVFGYNPADSHPIVANHVINAKRNGAKIIVCDPRKIETARIADMHIALKNGSNIALLNAMGHVIIEENLYDKAFVASRTEGFEEYRKIVEGYTPESVEDITGVSASEIRQAARMYAQAKSAAILWGMGVTQFYQGVETVRSLTSLAMLTGNLGKPHAGVNPVRGQNNVQGACDMGALPDTYPGYQYVKDPANREKFAKAWGVESLPAHTGYRISELPHRAAHGEVRAAYIMGEDPLQTDAELSAVRKAFEDLELVIVQDIFMTKTASAADVILPSTSWGEHEGVFTAADRGFQRFFKAVEPKWDLKTDWQIISEIATRMGYPMHYNNTQEIWDELRHLCPDFYGATYEKMGELGFIQWPCRDTSDADQGTSYLFKEKFDTPNGLAQFFTCDWVAPIDKLTDEYPMVLSTVREVGHYSCRSMTGNCAALAALADEPGYAQINTEDAKRLGIEDEALVWVHSRKGKIITRAQVSDRPNKGAIYMTYQWWIGACNELVTENLSPITKTPEYKYCAVRVEPIADQRAAEQYVIDEYNKLKTRLREAALA		FdhH activity (reduction of benzyl viologen) [3]: completely inactive

Reference: patent publication US12344879B2, “Transgenic bacteria with expanded amino acid usage and nucleic acid molecules for use in the same” (BOARD OF REGENTS, THE UNIVERSITY OF TEXAS SYSTEM, priority 2015, dated 2025)
